Blank lines part the entries; values can stand above or below the compound they belong to. Active and inactive are the calls of the source.
How the values were obtained:
Leucine aminopeptidase = target: T1, Leucine aminopeptidase (Plasmodium falciparum 3D7, UniProt Q8IL11); experiment: P. falciparum M17LAP inhibitors, primary screen, biochemical, fluorogenic H-Leu-NHMec substrate, 1536-well (AID 1619); assay type: functional
T1 sequence (Q8IL11 whole entry): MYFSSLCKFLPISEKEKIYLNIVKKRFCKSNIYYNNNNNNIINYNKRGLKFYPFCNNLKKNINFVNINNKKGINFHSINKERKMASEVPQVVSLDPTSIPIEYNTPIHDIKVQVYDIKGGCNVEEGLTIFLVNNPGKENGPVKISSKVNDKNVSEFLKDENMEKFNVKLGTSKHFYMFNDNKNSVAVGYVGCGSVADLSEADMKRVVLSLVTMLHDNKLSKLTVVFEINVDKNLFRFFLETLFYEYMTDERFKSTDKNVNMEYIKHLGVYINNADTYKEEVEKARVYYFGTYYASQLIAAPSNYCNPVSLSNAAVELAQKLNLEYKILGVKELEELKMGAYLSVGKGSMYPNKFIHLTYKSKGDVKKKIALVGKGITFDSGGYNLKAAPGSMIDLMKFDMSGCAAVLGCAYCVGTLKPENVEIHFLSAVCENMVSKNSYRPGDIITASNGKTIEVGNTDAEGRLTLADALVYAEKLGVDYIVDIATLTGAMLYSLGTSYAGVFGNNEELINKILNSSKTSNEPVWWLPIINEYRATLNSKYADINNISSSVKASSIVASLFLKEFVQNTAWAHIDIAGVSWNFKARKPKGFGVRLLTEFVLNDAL

Melanocortin receptor 4 = Melanocortin receptor 4 (Homo sapiens, UniProt P32245); assay type: functional, cell-based;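 note: Cell-based assay with luminescence read-out, confirmatory dose-response testing for agonist activity of biased ligands at MC4R; human U2OS cells with tagged receptor and beta-arrestin; potency of agonists that increase receptor coupling to beta-arrestin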
[1] = target: Beta-2 adrenergic receptor (Homo sapiens, UniProt P07550); experiment: beta2AR agonists driving receptor internalization, dose response, cell-based, FAP fluorogen, flow cytometry, cherry pick 1 (AID 588763); assay type: functional
[2] = target: T2, Neuropeptides B/W receptor type 1 (Homo sapiens, UniProt P48145); experiment: GPR7 antagonist potency, late-stage follow-up, cell-based, fluorescence, dose response, set 6 (AID 588583); assay type: functional
T2 sequence (P48145 whole entry): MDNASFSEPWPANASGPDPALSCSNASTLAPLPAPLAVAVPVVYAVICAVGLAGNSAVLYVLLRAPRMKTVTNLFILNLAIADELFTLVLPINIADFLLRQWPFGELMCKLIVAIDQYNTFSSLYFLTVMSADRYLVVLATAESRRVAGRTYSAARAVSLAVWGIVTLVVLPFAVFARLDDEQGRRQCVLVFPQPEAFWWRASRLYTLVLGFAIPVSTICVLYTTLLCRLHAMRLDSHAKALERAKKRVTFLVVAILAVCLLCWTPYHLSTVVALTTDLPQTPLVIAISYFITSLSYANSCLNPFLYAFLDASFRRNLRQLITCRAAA

[3] = target: Melanin-concentrating hormone receptor 1 (Homo sapiens, UniProt Q99705); experiment: Late-stage fluorescence-based counterscreen for antagonists of the G-protein coupled receptor 7 (GPR7): cell-based dose response assay to identify antagonists of the melanin-concentrating hormone receptor 1 (MCHR1) Set 6.; assay type: functional
Cysteine protease ATG4B = Cysteine protease ATG4B (Homo sapiens, UniProt Q9Y4P1); assay type: functional;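 note: Fluorescence-based dose-response confirmation assay measuring inhibition of ATG4B activity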
[4] = target: T3, Calpain-2 catalytic subunit (Sus scrofa, UniProt P43367); experiment: pig calpain II inhibitor potency, dose response, biochemical, fluorogenic peptide substrate (AID 1420); assay type: functional
T3 sequence (P43367 whole entry): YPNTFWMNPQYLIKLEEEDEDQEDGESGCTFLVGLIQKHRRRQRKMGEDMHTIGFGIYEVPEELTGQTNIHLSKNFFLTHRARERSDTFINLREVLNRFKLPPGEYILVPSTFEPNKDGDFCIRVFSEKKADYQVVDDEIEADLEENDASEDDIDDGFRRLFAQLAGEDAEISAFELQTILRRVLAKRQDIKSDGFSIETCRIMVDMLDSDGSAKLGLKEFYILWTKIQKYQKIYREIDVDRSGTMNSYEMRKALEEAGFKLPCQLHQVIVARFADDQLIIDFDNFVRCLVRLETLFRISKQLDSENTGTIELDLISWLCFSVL

Phospholipase A2 = Phospholipase A2 (Homo sapiens, UniProt P04054); assay type: functional;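 note: confirmatory dose-response counterscreen on phospholipase A2, testing hits that came from an ultra-high-throughput screen for ATG4B inhibitors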
[5] = target: Peroxisome proliferator-activated receptor gamma/Nuclear receptor coactivator 1 (Homo sapiens, UniProt P37231); assay type: functional;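 note: agonist potency as compounds enhance coactivator SRC-1 recruitment to PPARgamma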
[6] = growth suppression of beta-catenin-knockout colon cells, dose response, cell-based, HCT116, human colon tumor (AID 1045); assay type: functional;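 note: HCT116 colon tumor cells with beta catenin knocked out; cells exposed to compound for 60 hours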
SUMO-activating enzyme = SUMO-activating enzyme (Homo sapiens, UniProt Q9UBT2); experiment: SUMOylation inhibitor hit validation, confirmation, SUMOylation inhibitor project, biochemical, AlphaScreen (AID 2018); assay type: functional
[7] = target: Peroxisome proliferator-activated receptor gamma/Nuclear receptor coactivator 2 (Homo sapiens, UniProt P37231); assay type: functional;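 note: agonist potency for raising coactivator recruitment to the receptor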
[8] = growth suppression of PTEN-null colon cells, dose response, cell-based, HCT116 PTEN knockout (AID 1047); assay type: functional;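 note: HCT116 colon tumor cells with PTEN knocked out; cells exposed to compound for 60 hours before readout; potency for loss of cell viability measured by luminescence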
[9] = target: Peroxisome proliferator-activated receptor gamma/Nuclear receptor coactivator 3 (Homo sapiens, UniProt P37231); assay type: functional;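 note: agonist potency for raising coactivator recruitment to the receptor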
Insulin-degrading enzyme [10] = target: T4, Insulin-degrading enzyme (Homo sapiens, UniProt P14735); experiment: activators of recombinant IDE enzyme, dose response, counter-screen for IDE activator project, biochemical, fluorescence polarization (AID 588681)
T4 sequence (P14735 whole entry): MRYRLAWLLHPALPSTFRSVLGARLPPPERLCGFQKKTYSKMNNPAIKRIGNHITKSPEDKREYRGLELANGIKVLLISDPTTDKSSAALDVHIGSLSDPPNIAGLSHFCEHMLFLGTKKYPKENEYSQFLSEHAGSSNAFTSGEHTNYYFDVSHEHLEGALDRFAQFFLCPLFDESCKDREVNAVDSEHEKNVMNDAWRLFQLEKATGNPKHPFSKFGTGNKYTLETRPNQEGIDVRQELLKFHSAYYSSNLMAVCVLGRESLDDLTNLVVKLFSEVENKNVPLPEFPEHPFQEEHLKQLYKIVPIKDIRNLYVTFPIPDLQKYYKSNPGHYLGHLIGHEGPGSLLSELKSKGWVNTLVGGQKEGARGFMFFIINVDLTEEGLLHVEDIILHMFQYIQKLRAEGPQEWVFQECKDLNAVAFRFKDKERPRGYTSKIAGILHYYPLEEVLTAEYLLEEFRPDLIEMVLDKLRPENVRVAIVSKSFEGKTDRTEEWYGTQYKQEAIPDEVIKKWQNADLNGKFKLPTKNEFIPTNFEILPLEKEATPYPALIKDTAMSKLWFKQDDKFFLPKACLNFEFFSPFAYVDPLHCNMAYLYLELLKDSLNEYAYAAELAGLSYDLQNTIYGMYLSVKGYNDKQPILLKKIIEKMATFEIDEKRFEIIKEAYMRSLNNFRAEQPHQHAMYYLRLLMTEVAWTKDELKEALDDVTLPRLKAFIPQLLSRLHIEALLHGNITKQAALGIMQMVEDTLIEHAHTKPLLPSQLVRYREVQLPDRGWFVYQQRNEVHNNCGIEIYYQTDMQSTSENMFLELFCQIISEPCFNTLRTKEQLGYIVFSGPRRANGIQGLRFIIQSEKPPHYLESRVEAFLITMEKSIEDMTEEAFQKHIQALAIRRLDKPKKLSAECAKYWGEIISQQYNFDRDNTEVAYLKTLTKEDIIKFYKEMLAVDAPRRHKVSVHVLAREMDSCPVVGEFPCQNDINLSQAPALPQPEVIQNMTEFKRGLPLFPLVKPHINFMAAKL

Insulin-degrading enzyme [11] = target: T4, Insulin-degrading enzyme; experiment: activators of endogenous IDE in HEK cells, dose response, cell-based, fluorescence polarization (AID 588439); assay type: functional
HEK293 [12] = experiment: HEK cell cytotoxicity by LDH release, dose response, cytotoxicity control for IDE activator project, fluorescence, HEK cells (AID 588440); assay type: functional, cell-based; conditions: Homo sapiens;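 note: cytotoxicity by LDH release measuring loss of membrane integrity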
HEK293 [13] = experiment: optical interference in Abeta FP readout, dose response, artefact control for IDE activator project, biochemical, fluorescence polarization (AID 588442); assay type: functional, cell-based; conditions: Homo sapiens
[14] = target: Potassium voltage-gated channel subfamily KQT member 2 (Rattus norvegicus, UniProt O88943); experiment: KCNQ2 potassium channel inhibitors, dose response, cell-based, automated electrophysiology, set II, rat KCNQ2 (AID 588637); assay type: functional
Interleukin-8 [15] = target: T5, Interleukin-8 (Homo sapiens, UniProt P10145); experiment: Dose Response confirmation of uHTS small molecule hits for cystic fibrosis induced NFkb Inhibitors in a PAF-induced IL8 counterscreen.; assay type: functional; conditions: read-out: IC50_Mean
T5 sequence (P10145 whole entry): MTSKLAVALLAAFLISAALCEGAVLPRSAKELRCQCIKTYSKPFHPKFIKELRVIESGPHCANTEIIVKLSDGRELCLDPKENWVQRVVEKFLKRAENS

[16] = C. albicans growth with fluconazole, confirmation, fluorescence, retest (AID 2467); assay type: functional, cell-based
[17] = NIH-3T3 fibroblast cytotoxicity, dose response, cytotoxicity control, cell-based, fluorescence, Alamar Blue, secondary assay (AID 2327); assay type: functional;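 note: NIH-3T3 mouse fibroblasts cultured with fluconazole at 8 µg/mL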
Interleukin-8 [18] = target: T5, Interleukin-8; experiment: Dose Response confirmation of uHTS small molecule hits for cystic fibrosis induced NFkb Inhibitors in a TNFa-induced IL8 counterscreen.; assay type: functional; conditions: read-out: IC50_Mean
HEK293 [19] = experiment: cells; assay type: functional, cell-based; conditions: Homo sapiens
[20] = Luminescence Cell-Based Dose Retest to Confirm Inhibitors of Cancer Stem Cells. [Related pubchem assays (depositor defined):AID2717, AID2721]; assay type: functional; conditions: Homo sapiens
[21] = target: T6, Nuclear receptor subfamily 0 group B member 1 (Homo sapiens, UniProt P51843); experiment: Luminescence-based cell-based high throughput dose response assay for inhibitors of the orphan nuclear receptor subfamily 0, group B, member 1 (DAX1; NR0B1). [Related pubchem assays (depositor defined):AID504766, AID504790]; assay type: functional
T6 sequence (P51843 whole entry): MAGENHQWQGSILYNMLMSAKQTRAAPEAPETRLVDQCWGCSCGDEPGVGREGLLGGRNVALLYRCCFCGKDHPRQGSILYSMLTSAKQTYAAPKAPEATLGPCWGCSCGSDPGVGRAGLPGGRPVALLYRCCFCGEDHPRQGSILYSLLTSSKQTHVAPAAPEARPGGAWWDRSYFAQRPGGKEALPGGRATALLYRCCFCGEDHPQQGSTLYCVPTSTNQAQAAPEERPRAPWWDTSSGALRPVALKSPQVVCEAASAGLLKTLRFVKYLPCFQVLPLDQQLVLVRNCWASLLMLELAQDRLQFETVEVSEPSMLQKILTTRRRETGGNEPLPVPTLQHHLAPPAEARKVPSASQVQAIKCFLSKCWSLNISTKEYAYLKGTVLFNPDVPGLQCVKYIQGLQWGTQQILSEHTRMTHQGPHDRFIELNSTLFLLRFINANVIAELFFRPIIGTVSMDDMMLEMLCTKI
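Throughout, for AC50: cells exposed to compound for roughly 70 hours or longer before luminescence read.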

Melanin-concentrating hormone receptor 1, sequence (Q99705 whole entry): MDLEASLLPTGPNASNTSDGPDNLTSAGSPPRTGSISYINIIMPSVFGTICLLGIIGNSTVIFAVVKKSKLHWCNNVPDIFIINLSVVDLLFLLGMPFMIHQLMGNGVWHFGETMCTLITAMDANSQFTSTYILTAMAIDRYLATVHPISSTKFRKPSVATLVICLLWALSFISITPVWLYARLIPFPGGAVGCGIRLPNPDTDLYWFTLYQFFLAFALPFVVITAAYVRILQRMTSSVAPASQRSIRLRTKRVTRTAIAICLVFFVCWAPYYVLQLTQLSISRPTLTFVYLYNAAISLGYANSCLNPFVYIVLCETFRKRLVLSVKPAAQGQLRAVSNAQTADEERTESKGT
Beta-2 adrenergic receptor, sequence (P07550 whole entry): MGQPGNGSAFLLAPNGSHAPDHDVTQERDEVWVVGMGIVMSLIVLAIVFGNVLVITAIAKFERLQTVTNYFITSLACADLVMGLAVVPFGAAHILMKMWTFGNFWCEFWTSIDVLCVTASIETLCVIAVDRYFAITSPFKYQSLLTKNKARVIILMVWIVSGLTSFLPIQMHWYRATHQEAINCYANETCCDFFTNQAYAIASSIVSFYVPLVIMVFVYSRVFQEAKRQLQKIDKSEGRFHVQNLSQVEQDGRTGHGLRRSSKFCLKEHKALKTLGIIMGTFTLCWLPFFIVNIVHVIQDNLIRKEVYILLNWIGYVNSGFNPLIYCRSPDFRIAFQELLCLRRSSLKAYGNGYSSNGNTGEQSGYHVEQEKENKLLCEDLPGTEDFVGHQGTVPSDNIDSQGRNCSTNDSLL
Phospholipase A2, sequence (P04054 whole entry): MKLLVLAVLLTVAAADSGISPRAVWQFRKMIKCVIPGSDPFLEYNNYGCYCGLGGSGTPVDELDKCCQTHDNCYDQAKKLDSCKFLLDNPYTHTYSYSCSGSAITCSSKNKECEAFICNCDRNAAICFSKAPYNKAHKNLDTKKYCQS
Cysteine protease ATG4B, sequence (Q9Y4P1 whole entry): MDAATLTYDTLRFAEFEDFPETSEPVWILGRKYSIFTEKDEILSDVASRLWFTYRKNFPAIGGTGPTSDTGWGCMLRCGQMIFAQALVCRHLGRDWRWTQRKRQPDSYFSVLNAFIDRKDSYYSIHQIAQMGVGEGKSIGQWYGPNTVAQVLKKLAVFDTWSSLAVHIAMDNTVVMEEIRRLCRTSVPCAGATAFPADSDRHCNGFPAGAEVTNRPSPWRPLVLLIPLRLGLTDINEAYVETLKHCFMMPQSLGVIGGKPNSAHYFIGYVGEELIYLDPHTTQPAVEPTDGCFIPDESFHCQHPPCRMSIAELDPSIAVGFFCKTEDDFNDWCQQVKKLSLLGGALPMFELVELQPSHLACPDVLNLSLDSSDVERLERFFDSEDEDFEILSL
Peroxisome proliferator-activated receptor gamma/Nuclear receptor coactivator 1, sequence (P37231 whole entry): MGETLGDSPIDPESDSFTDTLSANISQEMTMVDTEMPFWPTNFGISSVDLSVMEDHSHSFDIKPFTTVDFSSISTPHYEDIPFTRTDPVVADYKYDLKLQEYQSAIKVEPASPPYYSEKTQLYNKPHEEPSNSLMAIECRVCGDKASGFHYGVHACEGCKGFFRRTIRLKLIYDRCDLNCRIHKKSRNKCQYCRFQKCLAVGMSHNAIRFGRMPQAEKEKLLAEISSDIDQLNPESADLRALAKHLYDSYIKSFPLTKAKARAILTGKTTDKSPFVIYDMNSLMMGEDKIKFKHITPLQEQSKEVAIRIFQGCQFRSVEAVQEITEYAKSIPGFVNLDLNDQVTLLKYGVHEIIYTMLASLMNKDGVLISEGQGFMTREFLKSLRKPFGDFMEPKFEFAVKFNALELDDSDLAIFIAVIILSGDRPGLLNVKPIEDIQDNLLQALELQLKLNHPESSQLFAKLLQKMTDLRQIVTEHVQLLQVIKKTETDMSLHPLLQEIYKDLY
Peroxisome proliferator-activated receptor gamma/Nuclear receptor coactivator 1, sequence (Q15788 whole entry, further chain): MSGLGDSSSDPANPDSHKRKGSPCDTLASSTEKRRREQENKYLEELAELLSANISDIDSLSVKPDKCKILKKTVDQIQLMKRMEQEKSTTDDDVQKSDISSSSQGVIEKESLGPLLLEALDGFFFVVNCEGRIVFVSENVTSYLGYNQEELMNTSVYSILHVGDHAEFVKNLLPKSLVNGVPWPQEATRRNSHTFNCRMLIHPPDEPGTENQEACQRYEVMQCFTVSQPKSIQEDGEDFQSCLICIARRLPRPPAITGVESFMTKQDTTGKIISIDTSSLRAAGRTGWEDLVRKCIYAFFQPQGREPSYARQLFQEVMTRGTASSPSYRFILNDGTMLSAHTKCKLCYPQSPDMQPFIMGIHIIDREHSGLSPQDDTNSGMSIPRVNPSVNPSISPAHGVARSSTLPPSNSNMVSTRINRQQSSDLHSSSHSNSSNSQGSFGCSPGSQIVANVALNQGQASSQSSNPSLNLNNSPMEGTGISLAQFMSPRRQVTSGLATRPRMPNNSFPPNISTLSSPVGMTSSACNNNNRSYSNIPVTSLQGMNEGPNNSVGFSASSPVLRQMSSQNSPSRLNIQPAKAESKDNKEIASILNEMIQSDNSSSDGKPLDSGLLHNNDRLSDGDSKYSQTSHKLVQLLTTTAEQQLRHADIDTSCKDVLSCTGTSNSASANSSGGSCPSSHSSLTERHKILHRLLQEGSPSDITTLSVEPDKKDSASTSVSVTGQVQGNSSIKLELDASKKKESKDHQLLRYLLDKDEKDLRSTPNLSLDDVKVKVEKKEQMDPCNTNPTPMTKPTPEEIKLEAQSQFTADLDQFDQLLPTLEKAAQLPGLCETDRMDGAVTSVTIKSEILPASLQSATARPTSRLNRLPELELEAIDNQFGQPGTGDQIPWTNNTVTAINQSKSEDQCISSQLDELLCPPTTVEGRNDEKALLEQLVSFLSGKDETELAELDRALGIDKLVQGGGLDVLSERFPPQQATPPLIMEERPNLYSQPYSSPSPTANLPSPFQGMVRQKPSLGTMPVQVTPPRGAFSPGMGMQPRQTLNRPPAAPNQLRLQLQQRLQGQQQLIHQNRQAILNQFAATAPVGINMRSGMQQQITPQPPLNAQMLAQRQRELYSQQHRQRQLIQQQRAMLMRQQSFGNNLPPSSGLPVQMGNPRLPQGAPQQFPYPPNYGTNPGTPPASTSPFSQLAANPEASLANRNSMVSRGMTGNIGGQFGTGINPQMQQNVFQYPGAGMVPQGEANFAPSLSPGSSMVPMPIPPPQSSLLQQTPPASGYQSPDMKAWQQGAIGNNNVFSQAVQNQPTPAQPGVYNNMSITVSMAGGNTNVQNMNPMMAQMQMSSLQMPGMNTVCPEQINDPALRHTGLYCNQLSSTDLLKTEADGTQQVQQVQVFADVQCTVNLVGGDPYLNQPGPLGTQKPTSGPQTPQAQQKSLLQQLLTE
Potassium voltage-gated channel subfamily KQT member 2, sequence (O88943 whole entry): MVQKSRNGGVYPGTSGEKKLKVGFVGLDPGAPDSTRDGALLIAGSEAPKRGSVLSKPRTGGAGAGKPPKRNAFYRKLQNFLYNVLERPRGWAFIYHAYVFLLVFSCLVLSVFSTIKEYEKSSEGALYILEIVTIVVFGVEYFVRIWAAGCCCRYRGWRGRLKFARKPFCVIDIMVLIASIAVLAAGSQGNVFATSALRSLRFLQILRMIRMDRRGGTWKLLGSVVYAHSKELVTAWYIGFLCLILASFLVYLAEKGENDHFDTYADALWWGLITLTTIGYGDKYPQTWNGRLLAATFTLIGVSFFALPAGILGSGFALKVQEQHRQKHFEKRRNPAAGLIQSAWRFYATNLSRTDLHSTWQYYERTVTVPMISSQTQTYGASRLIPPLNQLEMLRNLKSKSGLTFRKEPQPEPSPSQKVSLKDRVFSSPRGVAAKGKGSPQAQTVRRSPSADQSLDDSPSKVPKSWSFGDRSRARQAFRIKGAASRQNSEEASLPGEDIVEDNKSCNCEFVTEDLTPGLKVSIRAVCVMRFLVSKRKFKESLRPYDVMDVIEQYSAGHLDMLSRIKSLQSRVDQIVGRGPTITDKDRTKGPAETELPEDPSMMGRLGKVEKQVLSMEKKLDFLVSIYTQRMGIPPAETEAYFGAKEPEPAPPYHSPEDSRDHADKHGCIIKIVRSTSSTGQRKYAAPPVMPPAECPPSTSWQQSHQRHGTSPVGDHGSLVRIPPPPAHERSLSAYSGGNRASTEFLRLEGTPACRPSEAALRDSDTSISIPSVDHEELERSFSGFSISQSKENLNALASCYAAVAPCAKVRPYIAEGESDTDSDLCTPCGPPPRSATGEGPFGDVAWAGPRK
Melanocortin receptor 4, sequence (P32245 whole entry): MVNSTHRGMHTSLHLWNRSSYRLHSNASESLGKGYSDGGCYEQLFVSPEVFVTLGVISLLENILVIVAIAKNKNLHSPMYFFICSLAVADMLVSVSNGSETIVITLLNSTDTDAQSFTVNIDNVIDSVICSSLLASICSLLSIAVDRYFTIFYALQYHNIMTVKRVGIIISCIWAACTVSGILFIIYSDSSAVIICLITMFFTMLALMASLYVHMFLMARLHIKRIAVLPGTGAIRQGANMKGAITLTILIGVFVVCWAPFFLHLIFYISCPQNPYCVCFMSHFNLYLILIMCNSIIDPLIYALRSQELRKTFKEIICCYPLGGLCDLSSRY

Compound: O=C(Nc1ccc2oc(-c3ccc4ccccc4c3)nc2c1)c1ccc2c(c1)OCCO2
EC50 [5]: 27.1 µM (not active) | EC50 [6]: 18.4 µM (active) | IC50 (SUMO-activating enzyme): 38.9 µM (active) | EC50 [1]: 5.58 µM (active) | EC50 [7]: 22.1 µM (not active) | EC50 [8]: 12.4 µM (active) | EC50 [9]: 37.1 µM (not active)

Compound: Cc1ccc(Cn2nc(C)c(C(=O)N3CCN(S(=O)(=O)/C=C/c4ccccc4)CC3)c2C)cc1
EC50 (Insulin-degrading enzyme [10]): > 54.7 µM (inactive) | EC50 (Insulin-degrading enzyme [11]): > 54.7 µM (inactive) | IC50 (HEK293 [12]): > 89.2 µM (inactive) | EC50 (HEK293 [13]): > 54.7 µM (inactive)

Compound: COc1cc(-c2cc(C(=O)N(C)Cc3ccccc3)c3ccccc3n2)cc(OC)c1OC
IC50 [14]: 0.634 µM (active)

Compound: COc1ccc(Oc2c(Cl)cnn(Cc3cc(-c4ccccc4)n(-c4ccccc4)n3)c2=O)cc1
IC50 [2]: > 20 µM (inactive) | IC50 [3]: > 20 µM (inactive)

Compound: CC(=O)Nc1ccc(N2S(=O)(=O)c3ccccc3S2(=O)=O)cc1
EC50 (Insulin-degrading enzyme [10]): > 54.7 µM (inactive) | EC50 (Insulin-degrading enzyme [11]): > 54.7 µM (inactive) | IC50 (HEK293 [12]): > 89.2 µM (inactive) | EC50 (HEK293 [13]): > 54.7 µM (inactive)

Compound: O=C(Oc1cc2oc(=O)cc(-c3ccccc3)c2cc1Cl)C1CCCCC1
IC50 (Interleukin-8 [15]): 9.8 µM (active) | EC50 [16]: 2.32 µM (active) | EC50 [17]: > 150 µM (inactive) | IC50 (Interleukin-8 [18]): > 79 µM (inactive)

Compound: Cc1cc(C(=O)NNc2ccc(F)cc2F)no1
IC50 (HEK293 [19]): > 67.5 µM (inactive) | AC50 [20]: 1.1 µM (active) | IC50 [21]: > 67.5 µM (inactive) | EC50 [16]: > 38 µM (not active) | EC50 [17]: 2.93 µM (active)

More lines, now with the values ahead:

IC50 (Leucine aminopeptidase): 8.47 µM (active) | EC50 (Melanocortin receptor 4): > 89.2 µM (inactive)
Compound: CC(C)c1ccc(NC(=O)CSc2ncccc2C(=O)Oc2cccc([N+](=O)[O-])c2)cc1

EC50 [1]: 0.522 µM (active)
Compound: CC1CCC(NC(=O)CCS(=O)(=O)c2ccc3c(c2)CCN3C(=O)C2CC2)CC1 (configuration not stated)

IC50 [2]: 3.99 µM (active) | IC50 [3]: 3.99 µM (active)
Compound: Cc1c(C(C#N)c2ccccc2)cnn(Cc2cccc3ccccc23)c1=O (configuration not stated)

IC50 (Cysteine protease ATG4B): 16.3 µM (active) | IC50 [4]: 6.14 µM (not active) | IC50 (Phospholipase A2): 11.2 µM (active)
Compound: O=C(COC(=O)c1cc(Cl)ccc1[N+](=O)[O-])NCc1ccc(Cl)cc1Cl

IC50 (Cysteine protease ATG4B): 10.8 µM (active) | IC50 (Phospholipase A2): 7.12 µM (active)
Compound: CC(C)(C)n1ncc2c(=O)n(Cc3ccccc3Br)cnc21
